{"source": "ChEMBL document CHEMBL5380876", "about": "“Non-fused imidazole-biphenyl analogs repress triple-negative breast cancer growth by mainly stabilizing the c-MYC G-quadruplex via a multi-site binding mode” (Bioorg Med Chem, 2023)", "key": {"MDA-MB-231 [1]": {"system": "MDA-MB-231", "assay": "Induction of apoptosis in human MDA-MB-231 cells assessed as PARP cleavage at 1 to 4 uM incubated for 24 hrs by Western blot analysis", "format": "functional, cell-based", "details": "dose 1-4 µM"}, "Quadruplex DNA [2]": {"system": "Quadruplex DNA", "assay": "Stabilization of c-MYC G4 quadruplex DNA HRAS (unknown origin) assessed as change in temperature at which 50% protein unfold by circular dichroism melting assay"}, "[3]": {"assay": "Toxicity in BALB/c mouse xenografted with human MDA-MB-231 cells assessed as effect on heart at 5 mg/kg, ip administered every other day for 20 days and measured every 4 days", "format": "organism-based", "details": "in vivo, 480 h, time 20 day"}, "Quadruplex DNA [4]": {"system": "Quadruplex DNA", "assay": "Stabilization of c-MYC G4 quadruplex DNA Pu22 (unknown origin) assessed as temperature at which 50% protein unfold by circular dichroism melting assay", "format": "nucleic-acid assay"}, "Quadruplex DNA [5]": {"target": "Quadruplex DNA", "assay": "Binding affinity to c-MYC G4 quadraplex DNA (unknown origin) assessed as dissociation constant by fluorescence titration based analysis", "format": "nucleic-acid assay"}, "MDA-MB-231 [6]": {"system": "MDA-MB-231", "assay": "Induction of cell cycle arrest in human MDA-MB-231 cells assessed as accumulation of cells at S phase at 2 uM incubated for 24 hrs by propidium iodide staining based flow cytometry analysis (reference value: 15.50%)", "format": "functional"}, "dsDNA": {"system": "dsDNA", "assay": "Stabilization of duplex DNA (unknown origin) assessed as change in melting temperature by circular dichroism melting assay"}, "MDA-MB-231 [7]": {"system": "MDA-MB-231", "assay": "Induction of autophagy in human MDA-MB-231 cells assessed as increase in fluorescence intensity of LC3B in cytoplasm at 4 uM measured after 24 hrs by immunofluorescence based analysis", "format": "functional, cell-based"}, "A549": {"system": "A549", "assay": "Cytotoxicity against human A549 cells assessed as reduction in cell viability by CCK8 assay", "format": "functional, cell-based"}, "MDA-MB-231 [8]": {"system": "MDA-MB-231", "assay": "Induction of cell cycle arrest in human MDA-MB-231 cells assessed as accumulation of cells at sub-G1 phase at 4 uM incubated for 24 hrs by propidium iodide staining based flow cytometry analysis (reference value: 0.57%)", "format": "functional"}, "[9]": {"assay": "Toxicity in BALB/c mouse xenografted with human MDA-MB-231 cells assessed as effect on kidney at 5 mg/kg, ip administered every other day for 20 days and measured every 4 days", "format": "organism-based", "details": "in vivo, 480 h, time 20 day"}, "MDA-MB-231 [10]": {"system": "MDA-MB-231", "assay": "Induction of cell cycle arrest in human MDA-MB-231 cells assessed as accumulation of cells at G2/M phase at 2 uM incubated for 24 hrs by propidium iodide staining based flow cytometry analysis (reference value: 17.58%)", "format": "functional"}, "MDA-MB-231 [11]": {"system": "MDA-MB-231", "assay": "Induction of apoptosis in human MDA-MB-231 cells assessed as increase in late apoptotic cells at 1 to 4 uM incubated for 24 hrs by Annexin-V FITC/PI double staining based flow cytometry analysis", "format": "functional, cell-based", "details": "dose 1-4 µM"}, "[12]": {"assay": "Toxicity in BALB/c mouse xenografted with human MDA-MB-231 cells assessed as effect on spleen at 5 mg/kg, ip administered every other day for 20 days and measured every 4 days", "format": "organism-based", "details": "in vivo, 480 h, time 20 day"}, "HCC1806": {"system": "HCC1806", "assay": "Cytotoxicity against human HCC1806 cells assessed as reduction in cell viability by CCK8 assay", "format": "functional, cell-based"}, "MDA-MB-231 [13]": {"system": "MDA-MB-231", "assay": "Upregulation of phosphorylated Chk2 in human MDA-MB-231 cells at 1 to 4 uM measured after 24 hrs by Western blot analysis", "format": "functional, cell-based", "details": "dose 1-4 µM"}, "MDA-MB-231 [14]": {"system": "MDA-MB-231", "assay": "Downregulation of c-MYC expression in human MDA-MB-231 cells measured after 24 hrs by RT-PCR analysis", "format": "functional, cell-based", "details": "dose 1-4 µM"}, "[15]": {"assay": "Toxicity in BALB/c mouse xenografted with human MDA-MB-231 cells assessed as effect on liver at 5 mg/kg, ip administered every other day for 20 days and measured every 4 days", "format": "organism-based", "details": "in vivo, 480 h, time 20 day"}, "[16]": {"assay": "Toxicity in BALB/c mouse xenografted with human MDA-MB-231 cells assessed as effect on body weight at 5 mg/kg, ip administered every other day for 20 days and measured every 4 days", "format": "organism-based", "details": "in vivo, 480 h, time 20 day"}, "MDA-MB-231 [17]": {"system": "MDA-MB-231", "assay": "Induction of DNA damage in human MDA-MB-231 cells assessed as increase in gamma-H2AX fluorescence intensity at 4 uM measured after 24 hrs by immunofluorescence analysis", "format": "functional, cell-based"}, "[18]": {"assay": "Toxicity in BALB/c mouse xenografted with human MDA-MB-231 cells assessed as distress at 5 mg/kg, ip administered every other day for 20 days and measured every 4 days", "format": "organism-based", "details": "in vivo, 480 h, time 20 day"}, "MDA-MB-231 [19]": {"system": "MDA-MB-231", "assay": "Induction of cell cycle arrest in human MDA-MB-231 cells assessed as accumulation of cells at G2/M phase at 1 uM incubated for 24 hrs by propidium iodide staining based flow cytometry analysis (reference value: 17.58%)", "format": "functional"}, "MDA-MB-231 [20]": {"system": "MDA-MB-231", "assay": "Induction of apoptosis in human MDA-MB-231 cells assessed as decrease in necrotic cells at 1 to 4 uM incubated for 24 hrs by Annexin-V FITC/PI double staining based flow cytometric analysis", "format": "functional, cell-based", "details": "dose 1-4 µM"}, "MDA-MB-231 [21]": {"system": "MDA-MB-231", "assay": "Inhibition of colony formation in human MDA-MB-231 cells assessed as reduction in number of visible cell colonies at 0.1 to 0.4 uM measured after 14 days by crystal violet based staining analysis", "format": "functional", "details": "dose 0.1-0.4 µM, time 14.0 day"}, "MDA-MB-231 [22]": {"system": "MDA-MB-231", "assay": "Induction of cell cycle arrest in human MDA-MB-231 cells assessed as downregulation of cyclin B expression at 1 to 4 uM incubated for 24 hrs by Western blot analysis", "format": "functional, cell-based", "details": "dose 1-4 µM"}, "[23]": {"assay": "Toxicity in BALB/c mouse xenografted with human MDA-MB-231 cells assessed as effect on lung at 5 mg/kg, ip administered every other day for 20 days and measured every 4 days", "format": "organism-based", "details": "in vivo, 480 h, time 20 day"}, "HeLa": {"system": "HeLa", "assay": "Cytotoxicity against human HeLa cells assessed as reduction in cell viability by CCK8 assay", "format": "functional, cell-based"}, "MDA-MB-231 [24]": {"system": "MDA-MB-231", "assay": "Antitumor activity against human MDA-MB-231 cells xenografted in BALB/c nude mouse assessed as reduction in tumor volume at 5 mg/kg, ip administered every other day for 20 days and measured every 4 days", "format": "functional, organism-based", "details": "time 20.0 day"}, "[25]": {"assay": "Cytotoxicity against human MCF-10A cells assessed as inhibition of cell proliferation by CCK-8 assay", "format": "toxicity, cell-based"}, "MDA-MB-231 [26]": {"system": "MDA-MB-231", "assay": "Induction of apoptosis in human MDA-MB-231 cells assessed as caspase-9 cleavage at 1 to 4 uM incubated for 24 hrs by Western blot analysis", "format": "functional, cell-based", "details": "dose 1-4 µM"}, "MDA-MB-231 [27]": {"system": "MDA-MB-231", "assay": "Downregulation of c-MYC protein expression in human MDA-MB-231 cells at 1 to 4 uM measured after 24 hrs by Western blot analysis", "format": "functional, cell-based", "details": "dose 1-4 µM"}, "Quadruplex DNA [28]": {"system": "Quadruplex DNA", "assay": "Stabilization of c-MYC G4 quadruplex DNA (unknown origin) assessed as change in temperature incubated for 2 hrs in presence of HRAS by FRET assay", "format": "nucleic-acid assay"}, "MDA-MB-231 [29]": {"system": "MDA-MB-231", "assay": "Antitumor activity against human MDA-MB-231 cells xenografted in BALB/c nude mouse assessed as reduction in tumor weight at 5 mg/kg, ip administered every other day for 20 days and measured every 4 days", "format": "functional, organism-based", "details": "time 20.0 day"}}, "note": "The source made the active and inactive calls. The rule behind the calls is not given here."}
{"smiles": "CN1CCN(c2ccc(-c3nc(-c4ccc(-c5ccc(C(F)(F)F)cc5)cc4)[nH]c3-c3ccc(N4CCN(C)CC4)cc3)cc2)CC1", "values": [{"measurement": "Activity", "setting": "MDA-MB-231 [1]", "value": "Active"}, {"measurement": "ΔTm", "setting": "Quadruplex DNA [2]", "value": 7.1, "unit": "°C"}, {"measurement": "Activity", "setting": "[3]", "value": "Non-Toxic"}, {"measurement": "T", "setting": "Quadruplex DNA [4]", "value": 34.6, "unit": "°C"}, {"measurement": "Kd", "setting": "Quadruplex DNA [5]", "value": 2.7, "unit": "µM"}, {"measurement": "Activity", "setting": "MDA-MB-231 [6]", "value": 11.56, "unit": "%"}, {"measurement": "ΔTm", "setting": "dsDNA", "value": 0, "unit": "°C"}, {"measurement": "Activity", "setting": "MDA-MB-231 [7]", "value": "Active"}, {"measurement": "IC50", "setting": "A549", "value": 1.26, "unit": "µM"}, {"measurement": "Activity", "setting": "MDA-MB-231 [8]", "value": 44.98, "unit": "%"}, {"measurement": "Activity", "setting": "[9]", "value": "Non-Toxic"}, {"measurement": "Activity", "setting": "MDA-MB-231 [10]", "value": 11.35, "unit": "%"}, {"measurement": "Activity", "setting": "MDA-MB-231 [11]", "value": "Active"}, {"measurement": "Activity", "setting": "[12]", "value": "Non-Toxic"}, {"measurement": "IC50", "setting": "HCC1806", "value": 1.49, "unit": "µM"}, {"measurement": "Activity", "setting": "MDA-MB-231 [13]", "value": "Active"}, {"measurement": "Activity", "setting": "MDA-MB-231 [14]", "value": "Dose-Dependent Effect"}, {"measurement": "Activity", "setting": "[15]", "value": "Non-Toxic"}, {"measurement": "Activity", "setting": "[16]", "value": "Non-Toxic"}, {"measurement": "Activity", "setting": "MDA-MB-231 [17]", "value": "Active"}, {"measurement": "Activity", "setting": "[18]", "value": "Non-Toxic"}, {"measurement": "Activity", "setting": "MDA-MB-231 [19]", "value": 13.49, "unit": "%"}, {"measurement": "Activity", "setting": "MDA-MB-231 [20]", "value": "inactive"}, {"measurement": "inhibition", "setting": "MDA-MB-231 [21]", "value": "Active"}, {"measurement": "Activity", "setting": "MDA-MB-231 [22]", "value": "Active"}, {"measurement": "Activity", "setting": "[23]", "value": "Non-Toxic"}, {"measurement": "IC50", "setting": "HeLa", "value": 2.69, "unit": "µM"}, {"measurement": "Activity", "setting": "MDA-MB-231 [24]", "value": "Active"}, {"measurement": "IC50", "setting": "[25]", "value": 8.7, "unit": "µM"}, {"measurement": "Activity", "setting": "MDA-MB-231 [26]", "value": "Active"}, {"measurement": "Activity", "setting": "MDA-MB-231 [27]", "value": "Active"}, {"measurement": "Activity", "setting": "Quadruplex DNA [28]", "value": "Active"}, {"measurement": "Activity", "setting": "MDA-MB-231 [29]", "value": "Active"}]}
